According to PubChem BioAssay (NCI):
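Step 1: Grow cells in 96-well plates. Step 2: Expose to compound for 48 hours at 5 concentrations. Step 3: Interpolate endpoints linearly; if unreached, use highest concentration. Definition used: TGI = concentration required for complete inhibition of growth.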

Tests used:
Assay in all cases: NCI tumour cell line growth inhibition, 48 h
[1] = system: NCI-H460 lung
[2] = system: HL-60(TB) leukemia
[3] = system: MOLT-4 leukemia
[4] = system: MDA-MB-231 breast
[5] = system: IGROV1 ovarian
[6] = system: A549 NSCLC
[7] = system: RXF 393 renal
[8] = system: HS 578T breast
[9] = system: CCRF-CEM leukemia
[10] = system: DU-145 prostate

O=C1CC(=O)NC(=NNS(=O)(=O)c2ccc(Cl)cc2)N1
TGI [1]: > 100 µM | TGI [2]: > 100 µM | TGI [3]: > 100 µM | TGI [4]: > 100 µM | TGI [5]: > 100 µM | TGI [6]: > 100 µM | TGI [7]: > 100 µM | TGI [8]: > 100 µM | TGI [9]: > 100 µM | TGI [10]: > 100 µM

O=C(CC(Cl)=C(Cl)Cl)c1ccccc1
TGI [1]: > 100 µM | TGI [2]: > 100 µM | TGI [3]: 28.6 µM | TGI [4]: > 100 µM | TGI [5]: > 100 µM | TGI [6]: > 100 µM | TGI [7]: 63.8 µM | TGI [8]: > 100 µM | TGI [9]: 30.4 µM | TGI [10]: > 100 µM

CCCCCCCCCCCCCCCCCCOCC(O)COP(=O)(O)OCC1OC(n2ccc(N)nc2=O)C(O)C1O (stereo not given)
TGI [1]: 14.8 µM | TGI [2]: 30.8 µM | TGI [3]: 20 µM | TGI [4]: 64.7 µM | TGI [5]: 28.5 µM | TGI [6]: > 100 µM | TGI [7]: 33.3 µM | TGI [8]: > 100 µM | TGI [9]: 18.6 µM | TGI [10]: > 100 µM

Cc1ccc(Nc2nc3c(=O)n(C)c(=O)n(C)c3nc2Nc2ccc(C)cc2)cc1
TGI [1]: > 100 µM | TGI [2]: > 100 µM | TGI [3]: > 100 µM | TGI [4]: 27.1 µM | TGI [5]: 29.8 µM | TGI [6]: 52.9 µM | TGI [7]: 23.2 µM | TGI [8]: 79.6 µM | TGI [9]: > 100 µM | TGI [10]: > 100 µM

CCO/C=N/C1=C(C#N)SC2=N/C(=C\c3ccccc3)C(=O)N21
TGI [1]: > 100 µM | TGI [2]: > 83.2 µM | TGI [3]: > 100 µM | TGI [4]: > 100 µM | TGI [5]: > 100 µM | TGI [6]: > 100 µM | TGI [7]: > 100 µM | TGI [8]: > 100 µM | TGI [9]: > 100 µM | TGI [10]: > 100 µM

CC(=O)N(C(C)=O)c1cc2c3c(c1)CCCN3CCC2
TGI [1]: > 10 µM | TGI [2]: > 10 µM | TGI [3]: > 10 µM | TGI [4]: > 10 µM | TGI [5]: > 10 µM | TGI [6]: > 10 µM | TGI [7]: > 10 µM | TGI [8]: > 10 µM | TGI [9]: > 10 µM | TGI [10]: > 10 µM

CCOC(=O)/C=C(/C)Nc1nc2c(c(C(=O)OC)c1C#N)CCCC2
TGI [1]: > 100 µM | TGI [2]: > 100 µM | TGI [3]: > 100 µM | TGI [4]: > 100 µM | TGI [5]: > 100 µM | TGI [6]: > 100 µM | TGI [7]: > 100 µM | TGI [8]: > 100 µM | TGI [9]: > 100 µM | TGI [10]: > 100 µM

BrCC[N+]12CC[N+](CCBr)(CC1)C2
TGI [1]: > 100 µM | TGI [2]: > 100 µM | TGI [3]: > 100 µM | TGI [4]: > 100 µM | TGI [5]: > 100 µM | TGI [6]: > 100 µM | TGI [7]: > 100 µM | TGI [8]: > 100 µM | TGI [9]: > 100 µM | TGI [10]: > 100 µM

CNc1nc(C(N)=O)c(N)s1
TGI [1]: > 100 µM | TGI [2]: > 100 µM | TGI [3]: > 100 µM | TGI [4]: > 100 µM | TGI [5]: > 100 µM | TGI [6]: > 100 µM | TGI [7]: > 100 µM | TGI [8]: > 100 µM | TGI [9]: > 100 µM | TGI [10]: > 100 µM
